According to patent publication US20110294721A1, “ANTIMICROBIAL PEPTIDES” (priority 2008, published 2011):
“And” between values parts separate entries of the source, which are not always exact repeats. Identical values can stand only once. No end group written: not given here.

Columns and labels:
Alternaria alternata = assay: MIC in-vitro inhibition assay, antifungal (Example 2); type: cell-based; settings: complete inhibition of spore germination/mycelial growth; Table 1
Protocol: (§1) In-vitro inhibition assays were performed in sterile flat-bottom 96-well plates (Greiner bio-one, Frickenhausen). Antimicrobial peptides were dissolved in 0.01% acetic acid containing 0.2% BSA (500 μg/ml), filter sterilized and stored at −20° C. For inhibition assays dilutions of peptides ranging from 5 to 200 μg/ml were prepared and 10 μl (antibacterial assay) or 20 μl (antifungal assay) of each concentration was loaded per well.
(§2) Spores of fungi were collected by water washes of sporulating cultures grown on 2% malt extract agar and spore concentration was determined by microscopy. The concentration of the spores was adjusted to 1.5-2×10^3 spores/ml in 2% malt extract medium and 80 μl of fungal spores were added per well. The final peptide concentrations used in the fungal inhibition assays were 0, 2, 4, 10, 20, 40, and 100 μg/ml. After overnight incubation at room temperature the plate were put on a rotary shaker (300 rpm) for further two days to ensure consistantly growth. Antifungal effects of the peptides were determined by a microplate reader (Altemaria, Fusarium) at OD590 nm or by visual screening of the plates (Bottytis, Cladosporium).
(§3) The lowest peptide concentration leading to complete inhibition of bacterial growth or spore germination/mycelial growth (minimal inhibition concentration, MIC) was determined for each organism-peptide combination. For each peptide concentration two identical inhibition assays were performed.

Botrytis cinerea = assay: as above; type: cell-based; settings: complete inhibition of spore germination/mycelial growth; Table 1
Protocol: as §1, §2, §3

Cladosporium herbarum = assay: as above; type: cell-based; settings: complete inhibition of spore germination/mycelial growth; Table 1
Protocol: as §1, §2, §3

[1] = tested on: Pectobacterium carotovorum sub. carotovorum; settings: complete inhibition of bacterial growth; overnight 25° C.; Table 1
Xanthomonas vesicatoria [2] = settings: complete inhibition of bacterial growth; overnight 25° C.; Table 1
[3] = tested on: Pseudomonas syringae pv. tomato; settings: complete inhibition of bacterial growth; overnight 25° C.; Table 1
[4] = tested on: Pseudomonas syringae pv. syringae; settings: complete inhibition of bacterial growth; overnight 25° C.; Table 1
Pseudomonas corrugata [5] = settings: complete inhibition of bacterial growth; overnight 25° C.; Table 1
Pseudomonas corrugata [6] = settings: Table 2; for LC (lethal concentration): 100% inhibition after at least 4 days of incubation; for MIC: >90% inhibition, 1-2 days at 25° C.
Protocol: as §1
(§4) Bacteria colonies from overnight agar plate cultures were resuspended into 5 ml LB-medium or HPG-medium (OD600 nm=0.08-0.1) and diluted into LB-medium/HPG-medium (1:100). 90 μl of this suspension containing about 10^5-10^6 CFU/ml of tested bacteria were added to each well resulting in final peptide concentrations of 0, 0.5, 1, 2, 5, 10, and 20 μg/ml. […] The lowest concentration, in which there is no observable growth (>90% inhibition) is referred to as minimal inhibitory concentration (MIC). […] For each peptide concentration two identical inhibition assays were performed.

[7] = tested on: Clavibacter michiganensis; assay: MIC and lethal concentration (LC) assay (Example 3); type: cell-based; settings: Table 2; for LC (lethal concentration): 100% inhibition after at least 4 days of incubation; for MIC: >90% inhibition, 1-2 days at 25° C.
Protocol: as §1, §4

[8] = tested on: Pectobacterium carotovorum; assay: as above; type: cell-based; settings: Table 2; for LC (lethal concentration): 100% inhibition after at least 4 days of incubation; for MIC: >90% inhibition, 1-2 days at 25° C.
Protocol: as §1, §4

[9] = tested on: Pseudomonas syringae pv. syringae; assay: as above; type: cell-based; settings: Table 2; for LC (lethal concentration): 100% inhibition after at least 4 days of incubation; for MIC: >90% inhibition, 1-2 days at 25° C.
Protocol: as §1, §4

[10] = tested on: Pseudomonas syringae pv. tomato; assay: as above; type: cell-based; settings: Table 2; for LC (lethal concentration): 100% inhibition after at least 4 days of incubation; for MIC: >90% inhibition, 1-2 days at 25° C.
Protocol: as §1, §4

Xanthomonas vesicatoria [11] = assay: as above; type: cell-based; settings: Table 2; for LC (lethal concentration): 100% inhibition after at least 4 days of incubation; for MIC: >90% inhibition, 1-2 days at 25° C.
Protocol: as §1, §4

[12] = tested on: human immundeficiency virus (HIV); type: cell-based; settings: HeLa cells pre-treated 30 min at 37° C.; red fluorescence after 72 h; read-out: IC50, concentration where the infection is decreased by 50% (compared to non-treated controls)
Protocol: Cells were pretreated with 6.3 μg/ml SP13-3 and SP13-14 or buffer for 30 min at 37° C. before addition of virus particles. […] Shown is an overlay of pictures taken under transmitted light and fluorescence after 72 hours incubation. The viability of the HeLa cells was determined by measuring the activity of the mitochondrial dehydrogenase.
To measure the activity of the designed oligopeptides against human immundeficiency virus (HIV) a fluorescence-based reporter system was used. HeLa cells (LC5-RIC) harbour a reporter gene, which regulates in dependency of HIV Rev and Tat proteins the synthesis of a red fluorescing protein. In this way the infection of the HeLa cells (LC5-RIC) is indicated and the infection rate can be quantified using a fluorescence microplate reader.
(§5) Antimicrobial oligopeptides were dissolved in 0.01% acetic acid containing 0.2% BSA (500 μg/ml), filter sterilized and stored at −20° C. […] (in 5% CO2). Afterwards, virus particles were added to the pre-treated HeLa cells and the infection was quantified by measuring red fluorescence with a fluorescence microplate reader after 72 h incubation. The viability of the HeLa cells was determined by measuring the activity of the mitochondrial dehydrogenase according to Lindl and Bauer (1994) and Mosmann (1983).

HeLa cells (LC5-RIC) = type: cell-based, human
Protocol: as §5

Substance | LC (lethal concentration) (Pseudomonas corrugata [6]) | MIC (Pseudomonas corrugata [6]) | LC (lethal concentration) [7] | MIC [7] | LC (lethal concentration) [8] | MIC [8] | LC (lethal concentration) [9] | MIC [9] | LC (lethal concentration) [10] | MIC [10] | LC (lethal concentration) (Xanthomonas vesicatoria [11]) | MIC (Xanthomonas vesicatoria [11]) | also measured
KRKLIFLAAFLAALALFKKR-NH2 [SP15] |  |  |  |  |  |  |  |  |  |  |  |  | Minimal inhibition concentration (MIC) (Alternaria alternata): >100 µg/mL; Minimal inhibition concentration (MIC) (Botrytis cinerea): >100 µg/mL; Minimal inhibition concentration (MIC) (Cladosporium herbarum): 40 µg/mL; Minimal inhibition concentration (MIC) [1]: >40 µg/mL; Minimal inhibition concentration (MIC) (Xanthomonas vesicatoria [2]): 20 µg/mL; Minimal inhibition concentration (MIC) [3]: 40 µg/mL; Minimal inhibition concentration (MIC) [4]: >40 µg/mL; Minimal inhibition concentration (MIC) (Pseudomonas corrugata [5]): >40 µg/mL
KRRKLIKILKLIAKLIRKKR-NH2 [SP13-7] | 2.5 µg/mL | 0.5 µg/mL | 0.5 µg/mL | 0.25 µg/mL | >10/>10 μg/ml | >10/>10 μg/ml | >10/>10 μg/ml | >10/>10 μg/ml | 10/>10 μg/ml | 10/>10 μg/ml | 0.25 µg/mL | 0.1 µg/mL | 
KRRLALFRLFRLALKLVLKK-NH2 [SP13-11] | >10/>10 μg/ml | >10/>10 μg/ml | 2.5/2.5 μg/ml | 2.5/2.5 μg/ml | >10/>10 μg/ml | >10/>10 μg/ml | >10/>10 μg/ml | >10/>10 μg/ml | 5.0 µg/mL | 2.5 µg/mL | 5.0 µg/mL | 2.5 µg/mL | IC50 [12]: 2100 nM; negative/toxic effect on test cells (HeLa cells) (HeLa cells (LC5-RIC)): No negative/toxic effect
KRRLILRILRLAIRILVKKR-NH2 [SP13-3] | >10/>10 μg/ml | >10/>10 μg/ml | 10 µg/mL | 2.5 µg/mL | >10/>10 μg/ml | >10/>10 μg/ml | >10/>10 μg/ml | >10/>10 μg/ml | 10/10 μg/ml | 10/10 μg/ml | 10 µg/mL | 2.5 µg/mL | IC50 [12]: 2100 nM; negative/toxic effect on test cells (HeLa cells) (HeLa cells (LC5-RIC)): No negative/toxic effect
KRRLALFRAFRLALKSVLKK-NH2 [SP13-10] | 0.5 µg/mL | 0.25 µg/mL | 0.25 µg/mL | 0.1 µg/mL | >10/>10 μg/ml | >10/>10 μg/ml | >10/>10 μg/ml | >10/>10 μg/ml | 1.0/1.0 μg/ml | 1.0/1.0 μg/ml | 0.25 µg/mL | 0.1 µg/mL | 
KRRKLAFRAFRFALKAVLKK-NH2 [SP13-13] | 1.0 µg/mL | 0.25 µg/mL | 2.5 µg/mL | 0.5 µg/mL | >10/>10 μg/ml | >10/>10 μg/ml | 0.5/0.5 μg/ml | 0.5/0.5 μg/ml | 5.0 µg/mL | 2.5 µg/mL | 0.5 µg/mL | 0.25 µg/mL | 
KRRLIFRILKLFFRFLVKKR-NH2 [SP13-4] | > 10 µg/mL | 5.0 µg/mL | 2.5 µg/mL | 1.0 µg/mL | >10/>10 μg/ml | >10/>10 μg/ml | 10/>10 μg/ml | 10/>10 μg/ml | >10/>10 μg/ml | >10/>10 μg/ml | 2.5/2.5 μg/ml | 2.5/2.5 μg/ml | 
KRRKAIKILKLIAKLIRKKR-NH2 [SP13-8] | 0.5 µg/mL | 0.25 µg/mL | 0.25 µg/mL | 0.1 µg/mL | >10/>10 μg/ml | >10/>10 μg/ml | >10/>10 μg/ml | >10/>10 μg/ml | 10/>10 μg/ml | 10/>10 μg/ml | 0.5 µg/mL | 0.1 µg/mL | 
KRRKLIKILKLIIKLIRKKR-NH2 [SP13-6] |  | 2.5 µg/mL | 1.0 µg/mL | 0.1 µg/mL | >10/>10 μg/ml | >10/>10 μg/ml | 2.5 µg/mL | 1.0 µg/mL | 5.0 µg/mL | 2.5 µg/mL | 0.5 µg/mL | 0.1 µg/mL | 
KRRLILRILRLAIRALVKKR-NH2 [SP13-2] | 5.0/5.0 μg/ml | 5.0/5.0 μg/ml | 1.0 µg/mL | 0.25 µg/mL | >10/>10 μg/ml | >10/>10 μg/ml | 10 µg/mL | 5.0 µg/mL | 10/>10 μg/ml | 10/>10 μg/ml | 0.5 µg/mL | 0.25 µg/mL | 
KRRLIARILRLAIRALVKKR-NH2 [SP13-1] | 2.5/2.5 μg/ml | 2.5/2.5 μg/ml | 2.5 µg/mL | 0.5 µg/mL | >10//>10 μg/ml | >10//>10 μg/ml | 2.5 µg/mL | 1.0 µg/mL | 5.0 µg/mL and > 10 µg/mL | 1.0 µg/mL | 1.0 µg/mL | 0.5 µg/mL | 
KRRLFLFRLFRLFLRLFLKK-NH2 [SP13-12] | 10/>10 μg/ml | 10/>10 μg/ml | 5.0 µg/mL | 2.5 µg/mL | >10/>10 μg/ml | >10/>10 μg/ml | >10/>10 μg/ml | >10/>10 μg/ml | > 10 µg/mL | 5.0 µg/mL | 5.0 µg/mL | 2.5 µg/mL | 
KRRILIRILKLIIKLILKKR-NH2 [SP13-5] | 10/>10 μg/ml | 10/>10 μg/ml | > 10 µg/mL | 2.5 µg/mL | >10/>10 μg/ml | >10/>10 μg/ml | >10/>10 μg/ml | >10/>10 μg/ml | 5.0 µg/mL | 2.5 µg/mL | 5.0 µg/mL | 1.0 µg/mL | 
